The results in this text go back to ChEMBL document CHEMBL4024791, “Identification of Morpholino-2H-pyrido[3,2-b][1,4]oxazin-3(4H)-ones as Nonsteroidal Mineralocorticoid Antagonists” (J Med Chem, 2018).

By pIC50 is commonly meant the negative decadic logarithm of the IC50, by convention in mol/L. High values mean a small IC50, low ones a large IC50. The term microsomal CLint denotes a measure of how fast metabolising enzymes remove a compound, apart from limits set by blood flow. Low readings indicate greater metabolic stability, high ones faster metabolism. For orientation: AUC means the area under the concentration-time curve, a measure of exposure. Read a high AUC as high exposure. The bioavailability is dose-corrected exposure relative to a reference, in per cent. Low values mean poor availability, high ones good availability. As usually defined, the Papp A→B is the apparent permeability from the apical to the basolateral side of a cell layer. The fraction unbound is free concentration divided by total concentration. Read a high fraction unbound as much free substance.

Each structure is given as a SMILES string. pIC50: −log10 of the molar value.

The target of series [1] is T1, Mineralocorticoid receptor (Homo sapiens, UniProt P08235).
T1 sequence (P08235 whole entry): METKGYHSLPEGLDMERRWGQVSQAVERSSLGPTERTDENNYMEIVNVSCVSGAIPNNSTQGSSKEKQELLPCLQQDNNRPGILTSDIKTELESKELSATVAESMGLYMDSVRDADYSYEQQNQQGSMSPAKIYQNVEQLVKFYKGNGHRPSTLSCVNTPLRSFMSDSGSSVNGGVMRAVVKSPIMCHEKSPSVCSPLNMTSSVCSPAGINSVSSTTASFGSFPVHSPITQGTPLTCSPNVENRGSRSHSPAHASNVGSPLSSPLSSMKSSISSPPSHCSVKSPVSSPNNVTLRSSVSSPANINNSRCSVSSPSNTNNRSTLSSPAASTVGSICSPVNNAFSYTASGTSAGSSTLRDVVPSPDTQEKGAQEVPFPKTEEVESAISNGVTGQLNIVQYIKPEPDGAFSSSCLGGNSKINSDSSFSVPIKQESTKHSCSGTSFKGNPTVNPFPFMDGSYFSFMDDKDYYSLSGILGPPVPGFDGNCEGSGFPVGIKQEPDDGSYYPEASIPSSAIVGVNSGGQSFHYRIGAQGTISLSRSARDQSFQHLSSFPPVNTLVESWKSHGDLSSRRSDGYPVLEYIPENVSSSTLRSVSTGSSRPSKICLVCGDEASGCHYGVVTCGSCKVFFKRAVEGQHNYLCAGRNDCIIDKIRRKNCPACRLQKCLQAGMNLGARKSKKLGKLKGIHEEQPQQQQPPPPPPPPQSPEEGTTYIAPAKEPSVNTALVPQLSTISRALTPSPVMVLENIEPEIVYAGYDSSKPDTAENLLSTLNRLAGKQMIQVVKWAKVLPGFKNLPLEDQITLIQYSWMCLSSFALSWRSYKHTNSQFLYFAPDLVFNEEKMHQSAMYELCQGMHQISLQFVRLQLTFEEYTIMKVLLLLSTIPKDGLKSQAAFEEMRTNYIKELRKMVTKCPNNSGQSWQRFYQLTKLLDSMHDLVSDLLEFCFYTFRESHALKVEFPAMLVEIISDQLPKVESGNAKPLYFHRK
Description: Displacement of [3H]-aldosterone from human GST-tagged MR ligand binding domain after 4 hrs by liquid scintillation counting

A short description of series [2]: Intrinsic clearance in rat liver microsomes.
The test system of the next series is Salmonella typhimurium. Nature of the series: Genotoxicity in Salmonella typhimurium by Ames test. It counts as toxicity. The settings on record: salmonella enterica subsp. enterica serovar typhimurium. For orientation: The Ames test detects mutagens through reverse mutation in bacteria.
The next series concerns the target T2, Estrogen receptor (Homo sapiens, UniProt P03372).
T2 sequence (P03372 whole entry): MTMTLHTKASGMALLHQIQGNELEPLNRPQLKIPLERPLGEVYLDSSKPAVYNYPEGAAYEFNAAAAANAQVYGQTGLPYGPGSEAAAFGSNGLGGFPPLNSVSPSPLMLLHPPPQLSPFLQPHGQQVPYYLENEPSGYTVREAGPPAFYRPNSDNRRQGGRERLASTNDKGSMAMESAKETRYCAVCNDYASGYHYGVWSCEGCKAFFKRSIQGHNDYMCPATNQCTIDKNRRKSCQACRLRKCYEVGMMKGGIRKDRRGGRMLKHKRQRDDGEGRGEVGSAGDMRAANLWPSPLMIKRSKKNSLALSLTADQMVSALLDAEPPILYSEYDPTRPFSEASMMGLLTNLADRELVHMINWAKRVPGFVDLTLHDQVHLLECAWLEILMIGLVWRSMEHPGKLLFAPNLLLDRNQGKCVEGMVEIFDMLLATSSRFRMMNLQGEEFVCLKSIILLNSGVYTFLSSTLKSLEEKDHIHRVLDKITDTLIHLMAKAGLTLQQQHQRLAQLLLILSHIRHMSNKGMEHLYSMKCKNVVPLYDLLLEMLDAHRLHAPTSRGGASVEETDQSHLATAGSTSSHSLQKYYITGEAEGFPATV
In words: Binding affinity to ERalpha (unknown origin).

Series [3] is described as follows: AUC in Wistar rat at 100 mg/kg, po administered as single dose measured up to 8 hrs post dose by LC-MS analysis. It counts as ADME, organism-based. Set-up: dose 100 mg/kg, time < 8 hr, route oral. The settings on record: in vivo.
A short description of series [4]: Oral bioavailability in dog. It counts as ADME, organism-based, Canis lupus familiaris. The settings on record: in vivo.
Series [5] in a line: Oral bioavailability in rat. In kind it is ADME, organism-based. The settings on record: in vivo.
The next series has as its system MDR1 (P-gp). In words: Apparent permeability across apical to basolateral side in MDCK cells expressing human MDR1. It counts as ADME, cell-based, Canis lupus familiaris. The settings on record: dog.
A short description of series [6]: Fraction unbound in rat plasma. It counts as ADME, cell-free.

Consider `O=C1COc2ccc(N3CCOC[C@H]3c3ccccc3)cc2N1`, for which the pIC50 in series [1] was 6.40. For the same molecule, in series [2], the microsomal CLint turned out to be 223 µL/min/mg.

For `C[C@@H]1CN(c2ccc3c(n2)NC(=O)CO3)[C@H](c2ccccc2)CO1`, the Activity entry in the series with Salmonella typhimurium is listed as “Non-Toxic”. In addition, the pIC50 at Estrogen receptor is less than 5.00. The molecule further gave an AUC at 8 h in [3] of 9410 ng·h/mL. Besides, the bioavailability in series [4] was 65%; in series [5], 4 to 16%. In the series on MDR1 (P-gp), the Papp A→B turned out to be 24.9 ×10⁻⁶ cm/s. Further, in series [6], the fraction unbound was determined as 0.15.
